# Test results published in patent publication US10857105B2, “Compounds and compositions for intracellular delivery of therapeutic agents” (ModernaTX, Inc., priority 2017, dated 2020).
# Assays:
# IL-6, IP-10 = test: Cytokine induction (IL-6, IP-10) in mice 6 hours after intravenous administration; type: in vivo; set-up: unit not given here; details: intravenous 0.5 mpk
# Text: The introduction of foreign material into a mammalian body induces an innate immune response that promotes cytokine production. Such immune responses to, for example, nanoparticle compositions including therapeutic and/or prophylactics, are undesirable. The induction of certain cytokines is thus measured to evaluate the […] of nanoparticle compositions. The concentrations of various cytokines in mice upon intravenous administration of nanoparticle compositions presented in Table 1A at a dosage of 0.5 mpk was measured at 6 hours. The standard MC3 formulation and a PBS control were also tested. As is evident in Table 7, IL-6 induction was highest for compositions including Compounds 1, 3, 9, 19, and 26, while IP-10 induction was highest for compositions including Compounds 3, 4, 7, 20, and 26. IL-6 induction was lowest for compositions including Compounds 4, 11, 12, and 28. IP-10 induction was lowest for compositions including Compounds 10, 11, 12, 13, 15, 17, and 18.
# [1] = Particle size and polydispersity index of nanoparticle compositions (Zetasizer Nano ZS); type: physicochemical; details: Table 1A; lipid:DSPC:cholesterol:PEG-DMG 50:10:38.5:1.5 mol %
# Summary of the method: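 Formulations of ionizable lipid, DSPC, cholesterol and PEG-DMG (50:10:38.5:1.5 mol %) carrying Luc or hEPO mRNA with all uridines as N1-methyl pseudouridine. Dynamic light scattering in 1×PBS gave particle size and polydispersity; zeta potential read in 15 mM PBS.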
# modified luciferase = test: Luciferase expression in liver, lung, spleen and femur 6 hours after intravenous administration to mice; type: in vivo; details: 6 hours after intravenous 0.5 mpk, mice
# Summary of the method: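 Mice (n=3) got a single 0.5 mpk IV dose of each nanoparticle composition, with MC3 and PBS controls alongside. Organ luminescence flux was read 6 h post-dose.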
# [2] = Encapsulation efficiency of RNA in nanoparticle compositions (RIBOGREEN assay); type: physicochemical; details: Table 1A; lipid:DSPC:cholesterol:PEG-DMG 50:10:38.5:1.5 mol %
# Summary of the method: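 Lipid nanoparticles (ionisable lipid:DSPC:cholesterol:PEG-DMG 50:10:38.5:1.5 mol %) carrying N1-methylpseudouridine luciferase or hEPO mRNA diluted to about 5 μg/mL in TE, pH 7.5, with or without 2% Triton X-100, 15 min at 37° C. RiboGreen fluorescence (ex ~480, em ~520 nm) blank-subtracted; free RNA = intact/disrupted signal.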
"Cytokine induction, IL-6 (IL-6, IP-10)","Cytokine induction, IP-10 (IL-6, IP-10)",Size [1] [nm],EE [2] [%],Structure (SMILES),"Total Flux, Liver (modified luciferase)","Total Flux, Lung (modified luciferase)","Total Flux, Spleen (modified luciferase)","Total Flux, Femur (modified luciferase)"
17.47,283.13,99.4,–,"CCCCCCCCC(CCCCCCCC)OC(=O)CCCCCCCN(CCO)CCCCCCCC(=O)OCC1CC1CCCCCC (centres unmarked) [Compound 28, Heptadecan-9-yl 8-((8-((2-hexylcyclopropyl)methoxy)-8-oxooctyl)(2-hydroxyethyl)amino)octanoate]",1.22E+10,2.17E+08,1.80E+08,–
64.65,184.30,111.1,92.47,"CCCCCCCCCOC(=O)CCCCCCCN(CCCCCCCC(=O)OC(CCCCCCCC)CCCCCCCC)CCOC [Compound 15, Heptadecan-9-yl 8-((2-methoxyethyl)(8-(nonyloxy)-8-oxooctyl)amino)octanoate]",6.23E+06,6.41E+04,9.01E+05,5.93E+04
23.57,153.36,–,78.2,"CCCCCC/C=C\COC(=O)CCCCCCCN(CCO)CCCCCCCC(=O)OC/C=C\CCCCCC [Compound 139, Di((Z)-non-2-en-1-yl) 8,8′-((2-hydroxyethyl)azanediyl)dioctanoate]",8.27E+05,5.26E+04,2.10E+06,5.12E+04
29.07,126.29,79.4,92.28,"CCCCCCCCCOC(=O)CCCCCCCN(CCCCCCCC(=O)OC(CCCCCCCC)CCCCCCCC)CC(O)CC (centres unmarked) [Compound 13, Heptadecan-9-yl 8-((2-hydroxybutyl)(8-(nonyloxy)-8-oxooctyl)amino) octanoate]",2.25E+07,2.21E+05,7.09E+05,1.35E+05
90.54,976.50,80.2,96.00,"CCCCCCCCCOC(=O)CCCCCCCN(CCCCCCCC(=O)OC(CCCCCCCC)CCCCCCCC)C1CCCCC1O (centres unmarked) [Compound 22, Heptadecan-9-yl 8-((2-hydroxycyclohexyl)(8-(nonyloxy)-8-oxooctyl)amino)octanoate]",4.00E+07,4.73E+05,1.57E+06,1.16E+05
138.43,156.41,85.2,91.84,"CCCCCCCCCOC(=O)CCCCCCCN(CCCCCCCC(=O)OC(CCCCCCCC)CCCCCCCC)CCOCCN(C)C [Compound 17, Heptadecan-9-yl 8-((2-(2-(dimethylamino)ethoxy)ethyl) (8-(nonyloxy)-8-oxooctyl)amino)octanoate]",5.52E+05,9.95E+04,5.58E+06,9.55E+04
70.95,468.86,83.9,93.88,"CCCCCCCCCCCCCCN(CCO)CCCCCCCC(=O)OC(CCCCCCCC)CCCCCCCC [Compound 2, Heptadecan-9-yl 8-((2-hydroxyethyl)(tetradecyl)amino)octanoate]",4.87E+09,2.52E+07,5.77E+07,3.86E+06
327.15,1072.04,91.3,94.1,"CCCCCCCCCCCOC(=O)CCCCCN(CCO)CCCCCC(=O)OCCCCCCCCCCC [Compound 141, Diundecyl 6,6′-((2-hydroxyethyl)azanediyl)dihexanoate]",1.59E+05,3.85E+04,6.29E+04,2.86E+04
0.14,44.84,129.6,92.47,"CCCCCCCCCOC(=O)CCCCCCCN(CCCCCCCC(=O)OC(CCCCCCCC)CCCCCCCC)C[C@@H](C)O [Compound 11, Heptadecan-9-yl (R)-8-((2-hydroxypropyl)(8-(nonyloxy)-8-oxooctyl)amino)octanoate]",8.03E+08,1.35E+07,1.04E+08,–
282.82,187.83,120.3,89.2,"CCCCCCCC/C=C\COC(=O)CCCCCN(CCO)CCCCCC(=O)OC/C=C\CCCCCCCC [Compound 140, Di((Z)-undec-2-en-1-yl) 6,6′-((2-hydroxyethyl)azanediyl)dihexanoate]",4.21E+05,2.14E+04,2.22E+05,3.26E+04
3.88,32.03,116.7,92.44,"CCCCCCCCCOC(=O)CCCCCCCN(CCCCCCCC(=O)OC(CCCCCCCC)CCCCCCCC)C[C@H](C)O [Compound 12, Heptadecan-9-yl (S)-8-((2-hydroxypropyl)(8-(nonyloxy)-8-oxooctyl)amino)octanoate]",6.84E+08,7.45E+06,6.82E+07,–
267.24,687.14,72.7,–,"CCCCCCCCCCCCCCCCCCN(CCO)CCCCCCCC(=O)OC(CCCCCCCC)CCCCCCCC [Compound 1, Heptadecan-9-yl 8-((2-hydroxyethyl)(octadecyl)amino)octanoate]",4.02E+08,1.72E+06,4.27E+06,7.52E+05
319.46,4220.55,135.9,90.3,"CCCCCCCCCOC(=O)CCCCCCCN(CCO)CCCCCCCC(=O)N(CCCCCCCC)CCCCCCCC [Compound 144, Nonyl 8-((8-(dioctylamino)-8-oxooctyl)(2-hydroxyethyl)amino)octanoate]",3.75E+08,4.81E+06,5.11E+07,2.44E+06
13.1375,2253.09,120.5,95.10,"CCCCCCCCC(CCCCCCCC)OC(=O)CCCCCCCN(CCO)CCCCCCCC [Compound 4, Heptadecan-9-yl 8-((2-hydroxyethyl)(octyl)amino)octanoate]",5.26E+09,6.22E+07,4.09E+08,–
32.01,206.75,119.0,91.32,"CCCCCCCCCOC(=O)CCCCCCCN(CCCCCCCC(=O)OC(CCCCCCCC)CCCCCCCC)CCCOC [Compound 16, Heptadecan-9-yl 8-((3-methoxypropyl)(8-(nonyloxy)-8-oxooctyl)amino) octanoate]",3.17E+07,4.18E+05,5.43E+06,2.55E+05
94.07,487.16,–,77.07,"CCCCCCCCC(CCCCCCCC)OC(=O)CCCCCCCN(CCO)CCCCCC [Compound 5, Heptadecan-9-yl 8-(hexyl(2-hydroxyethyl)amino)octanoate]",5.84E+07,1.89E+06,1.55E+08,1.22E+06

Structure (SMILES),"Cytokine induction, IL-6 (IL-6, IP-10)","Cytokine induction, IP-10 (IL-6, IP-10)",Size [1] [nm],EE [2] [%],"Total Flux, Liver (modified luciferase)","Total Flux, Lung (modified luciferase)","Total Flux, Spleen (modified luciferase)","Total Flux, Femur (modified luciferase)"
"CCCCCCCCCOC(=O)CCCCCCCN(CCCCCCCC(=O)OC(CCCCCCCC)CCCCCCCC)CCOC(C)=O [Compound 9, Heptadecan-9-yl 8-((2-acetoxyethyl)(8-(nonyloxy)-8-oxooctyl)amino) octanoate]",317.45,366.53,68.5,75.7,4.30E+05,2.56E+04,5.51E+04,2.57E+04
